Laboratory results taken from patent US12551494B2, “Pharmaceutical composition for preventing or treating dengue fever” (SEOUL NATIONAL UNIVERSITY R&DB FOUNDATION, priority 2021, dated 2026).
Where “and” joins values, the source holds several entries; their conditions need not be identical. Equal entries are not always repeated.

Assays:
DENV serotype 2 [1] = experiment: GOViRA (graphene oxide-based viral RNA analysis) fluorescence antiviral assay / drug library screening in Vero E6 cells; assay type: cell-based, dengue virus
Protocol: Vero E6 cells were seeded onto 96-well, black wall, optical bottom plates at a density of 1.5×10^4 cells per well and incubated with DMEM supplemented with 10% FBS and P/S. After overnight incubation, the cells were briefly washed with 1× PBS and infected with DENV. Next, 20 pmol vPNA or β-actin PNA probe was mixed with 1.2 μg DRGON solution for 10 min at RT. The Vero E6 cells were treated with the PNA-DRGON complexes for 5 h. The plates were incubated for up to 72 h, and cell nuclei were counterstained with Hoechst 33342. Fluorescent images were obtained by the IN Cell Analyzer 2000 (GE Healthcare) and DeltaVision Elite (GE Healthcare) imaging system. The quantification of data was processed with the IN Cell Developer software (https://cyvitalifesciences.com).
For the drug library screening experiments, 1.5×10^4 Vero E6 cells in a total volume of 100 μL per well were seeded onto 96-well, black wall, optical bottom plates using DMEM media supplemented with 10% FBS and P/S and incubated overnight. Next, the cells were pretreated with 50 μL of experimental compounds or vehicle in DMEM supplemented with 2% FBS and P/S and incubated 1 h at 37° C. Next, 50 μL of DENV (a final MOI of 0.5) were added to each well, resulting in a 10 μM final concentration for each compound and cells were incubated for 48 h.
Infection was stopped by rinsing each well with 1× PBS, and the infected cells were treated with the PNA-DRGON complexes for 5 h at 37° C. and then briefly washed with 1× PBS. Fluorescent images were obtained by the IN Cell Analyzer 2000, and quantification of the data was processed using the IN Cell Developer software.
To determine its systemic reliability as a high-throughput screening assay, we used Z′-factor as a statistical parameter. […] To further verify whether the GOViRA system is capable of the quantitative analysis of antiviral activity, we utilized the system to investigate the cellular effect caused by a model representative antiviral compound, Ribavirin. […]

DENV [2] = experiment: qRT-PCR analysis of viral RNA in DENV-infected Vero E6 cells; assay type: cell-based, dengue virus; conditions: dose-dependent treatment
Protocol: (§1) Total RNA was extracted using Trizol (Invitrogen). The cDNA samples were prepared by reverse transcription using SuperScript II Reverse Transcriptase (Invitrogen). The synthesized cDNA samples were subjected to qRT-PCR with primers specific for each gene by using the PowerUp SYBR Green Master Mix (Applied Biosystems) and CFX Connect (Bio-Rad).
(§2) Standard assays were done to check the antiviral effect and cytotoxicity of ulipristal in vitro. The activity of ulipristal against DENV was evaluated by both FFA and qRT-PCR. For the FFA, Vero E6 cells were infected with DENV in the presence of various concentrations of ulipristal.
(§3) The anti-DENV activity was assessed by immunostaining with antibodies specific to the DENV E protein. […] The cytotoxicity of the compound in the Vero E6 cells was determined by the CCK-8 assay.

Vero E6 cells = experiment: Cell viability test (CCK-8 assay); assay type: cell-based
Protocol: The CCK-8 assay was performed according to the manufacturer's instructions. Vero E6, Huh7, and A549 cells were seeded in 96-well culture plates with 100 μL of complete media. After 24 h of incubation, the cells were treated with nanomaterials or drug in serially diluted concentrations for 48 h. The cells were rinsed with 1× PBS twice, and CCK-8 reagent was treated at a concentration of 10% (v/v) and incubated for 1 h. The optical density at 450 nm was measured by SynergyMx (Biotek) in the absorbance mode.

DENV [3] = experiment: DENV infection in A549 cells (qRT-PCR of viral RNA, E protein immunostaining); assay type: cell-based, dengue virus
Protocol: as §1
(§4) We further validated the antiviral activity of ulipristal using Huh7 (liver carcinoma cell line) and A549 (lung carcinoma cell line) cell lines as hosts for the DENV infection. Both cell monolayers were analyzed with qRT-PCR to observe the relative DENV RNA level. […] Moreover, the fluorescence signal of the viral E protein from immunostaining also was reduced by the ulipristal treatment (FIG. 11C).

PR = experiment: qRT-PCR analysis of PR expression in A549 cells; assay type: cell-based; conditions: 24 h of incubation
Protocol: as §1
A time-of-addition experiment was performed to determine which time point of the viral infection stage is affected by the administration of ulipristal. Because ulipristal is widely known as an SPRM compound, we chose a cell line without PR expression to exclude the influence of PR signaling on the time-of-addition experiment. […] After 24 h of incubation, the RNA expression level of each group was analyzed. There was no PR expression in the NT group (FIG. 13). […] Therefore, we examined the mode of action of ulipristal using the A549 cell line.

DENV [4] = experiment: Time-of-addition assay in A549 cells; assay type: cell-based, dengue virus; conditions: 48 h p.i.
Protocol: A549 cells were seeded onto 24-well plates. After incubation overnight, cells were treated with ulipristal at the various time points and inoculated with DENV. At 48 h p.i., the cells were washed with 1× PBS and processed for qRT-PCR.
A549 cells were treated with ulipristal in three different conditions: treatment before the infection (pre-treatment), treatment along with the infection (co-treatment), and treatment after the infection (post-treatment) (FIG. 14A). […] Furthermore, the degree of inhibitory effect was decreased as the ulipristal administration was delayed (FIG. 14B).

DENV (KBPV-VR-29) = experiment: Murine DENV infection model (AG129 mice); assay type: in vivo
Protocol: AG129 mice (8-10 weeks old, female) were purchased from Marshall BioResources and housed under pathogen-free conditions. Animal research was approved by the Institutional Animal Care and Use Committee of Seoul National University and was performed according to the guidelines of the recommendations from the Association for Assessment and Accreditation of Laboratory Animal Care.
The murine DENV infection model was as described in previous study (Park, S. J., Kim, J., Kang, S., Cha, H. J., Shin, H., Park, J., Jang, Y. S., Woo, J. S., Won, C., Min, D. H., 2020. Sci Adv 6 (22), eaaz8201.). AG129 mice were exposed with a target dose of […] of the DENV by intraperitoneal injection. One hour after the challenge, the animals were treated with ulipristal. The compound was dissolved in sesame oil at a 10× concentration and further diluted in 1× PBS. Ulipristal was administered to the animals by intraperitoneal injection.
Animals in the vehicle control groups were administered a solution with no drug. The animals were monitored for weight, morbidity (ruffled fur, hunched posture, etc.), and survival daily for a total of 14 days after infection. Mice with a weight <80% of their initial body weight were humanely euthanized. At 3 days p.i., mice were sacrificed from each group. Blood and organ samples were collected. Blood was clarified by centrifugation, and viremia was determined by qRT-PCR. Organs were homogenized, and total RNA was extracted using Trizol. The relative DENV RNA level from each organ was determined by qRT-PCR.
Organ samples were fixed with 4% paraformaldehyde and embedded in paraffin. Paraffin sections were stained with H&E at the pathology core facility in the Center for Medical Innovation, Seoul National University Hospital, Korea.
The DENV strain we used (KBPV-VR-29) has been reported as a mouse-adapted virus strain. […] One hour after the infection, the animals were treated with ulipristal or vehicle over 14 days, and survival was monitored during that period.
Ulipristal was given at a dose of 15 mg/kg every day through intraperitoneal injection.

DENV [5] = experiment: DENV infection in Huh7 cells (qRT-PCR of viral RNA, E protein immunostaining); assay type: cell-based, dengue virus
Protocol: as §1, §4

DENV serotype 2 [6] = experiment: Focus-forming assay (FFA) in Vero E6 cells; assay type: cell-based, dengue virus
Protocol: The virus was titrated by FFA in Vero E6 cells. Ten-fold serial diluted virus in DMEM supplemented with 2% FBS and P/S was added onto confluent Vero E6 cell monolayers attached to 96-well, black wall, optical bottom plates (Corning) and incubated for 1 h. After the incubation, the wells were overlaid with 100 μL of DMEM with 10% FBS, P/S, and methylcellulose and incubated for 2 days. Following the incubation, cell monolayers were fixed with 4% paraformaldehyde and then treated with blocking solution for 1 h. Samples were then treated with the anti-Dengue virus E protein antibody (GeneTex, GTX127277), followed by FITC-labeled goat anti-mouse IgG secondary antibody (Sigma-Aldrich, F0257).
as §2, §3

[7] = 15 mg/kg every day i.p., day 3 p.i.

## NC(=O)c1ncn([C@@H]2O[C@H](CO)[C@@H](O)[C@H]2O)n1 [ribavirin, Ribavirin]
DENV serotype 2 [1]; DENV-infected Vero E6 cells
  fluorescence signal (GOViRA), dose response: serial decrease in the fluorescence signal dose-dependently
DENV serotype 2 [1]; Dengue virus, Vero C1008, DENV-infected Vero E6 cells, concentrations 6.25 μM to 400 μM, PNA-DRGON complex after 48 hours, read-out: EC50 value for DENV serotype 2 (GOViRA system)
  EC50: 49.2 ± 0.2 µM

## CC(=O)[C@@]1(O)CC[C@H]2[C@@H]3CCC4=CC(=O)CCC4=C3[C@@H](c3ccc(N(C)C)cc3)C[C@@]21C [ulipristal]
DENV [2]
  relative expression level of viral RNA (qRT-PCR): active against DENV
DENV serotype 2 [1]; 10 μM, Vero E6 cells, pretreated 1 h, MOI 0.5, 48 h
  fluorescence signal decrease in drug library screening: < 25%
Vero E6 cells; 10 μM
  cell viability in drug library screening: minimal effects on cell viability
Vero E6 cells; 48 h
  cytotoxicity / cell viability (CCK-8): no impact on cell viability
DENV [3]
  fluorescence signal of viral E protein (immunostaining): reduced
  relative DENV RNA level (qRT-PCR): inhibited the DENV infection in both cell lines dose-dependently
PR
  levels of PR expression (qRT-PCR): did not influence the levels of PR expression
DENV [4]; co-treatment (along with the infection)
  intracellular viral RNA level, antiviral effect: antiviral effect by the administration of the drug was observed
DENV [4]; post-treatment (after the virus inoculation)
  intracellular viral RNA level, antiviral effect: less inhibitory effect
DENV [4]; pre-treatment (before the infection)
  intracellular viral RNA level, antiviral effect: antiviral effect by the administration of the drug was observed
DENV (KBPV-VR-29); 15 mg/kg every day i.p.
  spleen histology (H&E), white-pulp/red-pulp boundary loss: boundary loss was decreased
DENV (KBPV-VR-29); [7]
  viral RNA load in organs (spleen, lung, liver, large intestine): significantly decreased
  viral RNA load in the small intestine, difference vs vehicle: not statistically significant
DENV (KBPV-VR-29); 15 mg/kg every day i.p., day 3 p.i., vs control group
  viremia in the blood (qRT-PCR): significantly reduced viremia
DENV (KBPV-VR-29); 15 mg/kg every day i.p., vs control group
  liver histology (H&E): nuclear pleomorphism of hepatocytes, dilatation of sinusoids, focal necrosis: significant reduction of such symptoms
DENV (KBPV-VR-29); 15 mg/kg every day, intraperitoneal, 14 days, log-rank test
  survival: statistically significant survival benefit (P=0.0007)
DENV (KBPV-VR-29); 15 mg/kg every day, intraperitoneal, DENV 1×107 FFU i.p., 14 days
  relative body weight change and disease symptoms: Compared to the ulipristal-treated group, the control group exhibited a huge weight loss
DENV [5]
  fluorescence signal of viral E protein (immunostaining): reduced
  relative DENV RNA level (qRT-PCR): inhibited the DENV infection in both cell lines dose-dependently
DENV serotype 2 [6]; DENV serotype 2, read-out: half-effective concentration (EC50), anti-DENV activity by FFA
  EC50: 8.3 µM and 8.28 µM
DENV serotype 2 [6]; various concentrations
  number of foci (FFA, DENV E protein immunostaining): number of foci decreased in a dose-dependent manner
